Data reported in PMC7594877, “Multidirectional in vitro and in cellulo studies as a tool for identification of multi-target-directed ligands aiming at symptoms and causes of Alzheimer’s disease” (Journal of Enzyme Inhibition and Medicinal Chemistry, 2020).
“And” between values parts separate entries of the source, which are not always exact repeats. Identical values can stand only once.

Columns and labels:
tau = biological target: T1, tau (Homo sapiens, UniProt P10636); assay: In cellulo tau aggregation inhibition, Thioflavin S fluorescence in E. coli overexpressing tau; format: cell-based, Escherichia coli; conditions: at 10 µM; mean of three experiments ± SEM
T1 construct: expressed in transfected cells; host or cells: E. coli BL21 (DE3) with pTARA (T7 RNA polymerase under pBAD) and pRKT42
Description: (§1) We screened multifunctional ligands from our in-house library for their anti-aggregating activity against Aβ and tau in the whole bacterial cells using the Thioflavin S (ThS) fluorescence assay. Bacterial cells overexpressing different proteins provide simple models that can be easily employed to monitor the mechanisms of protein aggregation related to a variety of conformational diseases[36]^,[37]. In our assay, E. coli system has been implemented to study the effect of potential Aβ42 and tau aggregation inhibitors within intact cells. The advantage of the test over in vitro tests is the fact that it considers the complexity of the cellular environment that plays a crucial role in tuning protein aggregation. This assay has been validated and successfully applied to assess the anti-aggregating properties of diverse chemical structures. Previously investigated tetrahydrobenzo[h][1,6] naphthyridine-6-chlorotacrine hybrid DP-128 was used as a reference compound[38]^,[39].
(§2) The assays were conducted according to the procedure described previously. All general chemicals were purchased from Sigma-Aldrich (St. Louis, MO) . Reagents for bacterial media were purchased from Conda (Sevilla, Spain). M9 minimal medium for 100 mL: 10 mL of salts 10× (0.68 g of Na2HPO4, 0.30 g of KH2PO4, 0.05 g of NaCl, 0.10 g of NH4Cl), 0.2 mL of 1 M MgSO4, 0.2 mL of 50 mM CaCl2, 2.5 mL of 20% glucose, and 87.1 mL of H2O.
(§3) E. coli competent cells BL21 (DE3) were transformed with the pET28a vector (Novagen, Inc., Madison, WI) carrying the DNA sequence of Aβ42 or with pTARA containing the RNA polymerase gene of T7 phage (T7RP) under the control of the promoter pBAD, then with pRKT42 vector encoding four repeats of tau protein in two inserts. For overnight culture preparation, 10 ml of M9 minimal medium containing 50 μg/mL of kanamycin (Aβ42) or 50 μg/mL of ampicillin and 12.5 μg/mL of chloramphenicol (tau) were inoculated with a colony of BL21 (DE3) bearing the plasmid Aβ42 or tau plasmids to be expressed at 37 °C and 180 rpm using an incubator shaker (Ovan, Barcelona, Spain). After overnight growth, the OD600 was usually 2 − 2.5. For expression of Aβ42 peptide/tau protein, 200 μL of overnight culture were transferred into Eppendorf tubes of 1.5 mL containing 790 μL of fresh M9 minimal medium with 50 μg/mL of kanamycin1 mM of isopropyl 1-thio-β-D-galactopyranoside (IPTG) (Aβ42) or 50 μg/mL of ampicillin, 12.5 μg/mL of chloramphenicol, 0.25% of arabinose (tau), and 25 μM of ThS and 10 μL of reference, tested compounds (1 mM in DMSO, final concentration: 10 μM) or DMSO. The samples were grown for 24 h at 37 °C and 180 rpm using an incubator shaker (Ovan). The samples with DMSO were prepared as a negative control (maximum level of Aβ42/tau, 0% of inhibition). In the positive controls, the M9 medium without IPTG (minimal level of Aβ42) or arabinose (minimal level of tau) was used. For absorbance and fluorescence determination, 200 μL of each Eppendorf tube was transferred in triplicate into 96-well plate. Finally, the fluorescence emission at 520 nm, when exciting at 440 nm and absorbance at 600 nm was recorded using the multi-mode microplate reader (Beckman Counter, Brea, CA). The absorbance at 600 nm (OD600) of these samples was assessed to check the bacterial growth and potential intrinsic toxicity of the tested compounds. Final data are the average of three independent experiments. DP-128 was used as a reference compound[38].

Aβ42 = biological target: T2, Aβ42 (Homo sapiens, UniProt P05067); assay: In cellulo Aβ42 aggregation inhibition, Thioflavin S fluorescence in E. coli overexpressing Aβ42; format: cell-based, Escherichia coli; conditions: at 10 µM; mean of three experiments ± SEM
T2 construct: expressed in transfected cells; host or cells: E. coli BL21 (DE3) with pET28a-Aβ42, IPTG-induced
Description: as §1, §2, §3

human BACE1 = biological target: T3, human BACE1 (Homo sapiens, UniProt P56817); assay: In vitro inhibition of human BACE1, FRET assay; format: biochemical; conditions: for IC50: mean of three experiments ± SEM, read-out: hBACE1 IC50; for hBACE1 % inhibition: at 10 µM per table footnote b, mean of three experiments ± SD; for BACE1 percentage of inhibition: screening concentration 50 µM
T3 construct: purchased Panvera, Madison, WI (BACE1 FRET Assay Kit); host or cells: baculovirus-expressed
Protocol: To further explore the multifunctional profile of the ligands, we screened them for their inhibitory activity against human BACE1 using spectrofluorometric assay (fluorescence resonance energy transfer (FRET)-based). […] Therefore, BACE1 inhibitors are now being tested in earlier stages of AD and in asymptomatic subjects at risk of AD, with the hope of blocking the disease process before it becomes irreversible.
BACE1 FRET Assay Kit (Panvera, Madison, WI) was performed according to the manufacturer’s protocol with small modifications. The Kit includes purified baculovirus-expressed BACE1 and specific peptide substrate (Rh-[…]-quencher), based on the “Swedish” mutant of APP. The analysis was carried, using 384-well black microplates and a microplate reader (EnSpire Multimode; PerkinElmer, Waltham, MA). The wavelength was optimised for the 553 nm excitation and 576 nm emission. Stock solutions of all test compounds were prepared in DMSO and further diluted with assay buffer (50 mM sodium acetate; pH 4.5). In the first step, 10 μL of BACE1 substrate was mixed with 10 μL of test compound (or assay buffer; i.e. blank sample), then 10 μL of the enzyme (1 U/mL) was added to start the reaction. After 60 min of incubation at 25 °C, 10 μL of stop solution (2.5 M sodium acetate) was applied to stop the reaction. The fluorescence signal was read at 576 nm. Percent of inhibition was calculated from [1 − (S60 − S0)/(C60 − C0)] × 100, where S0 and S60 are fluorescence intensities of the test sample (enzyme, substrate, test compound) at the beginning of the reaction and after 60 min, respectively, while C0 and C60 are analogical fluorescence intensities of the blank sample (enzyme, substrate, buffer). […] Each compound was analysed in triplicate. Commercially available BACE1 Inhibitor IV (Calbiochem, Merck; Nottingham, UK) was used as the reference compound. The IC50 values were calculated using nonlinear regression (GraphPad Prism 5 [GraphPad Software, San Diego, CA, 5.00]) by plotting the residual enzyme activities against the applied inhibitor concentration.

hAChE = conditions: read-out: hAChE IC50; cited from earlier work
eqBuChE = conditions: read-out: eqBuChE IC50; cited from earlier work

T2 sequence (P05067 672-713): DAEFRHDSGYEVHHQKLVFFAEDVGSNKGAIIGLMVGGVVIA
T1 sequence (P10636 other isoform, or with tags, fused parts or gaps): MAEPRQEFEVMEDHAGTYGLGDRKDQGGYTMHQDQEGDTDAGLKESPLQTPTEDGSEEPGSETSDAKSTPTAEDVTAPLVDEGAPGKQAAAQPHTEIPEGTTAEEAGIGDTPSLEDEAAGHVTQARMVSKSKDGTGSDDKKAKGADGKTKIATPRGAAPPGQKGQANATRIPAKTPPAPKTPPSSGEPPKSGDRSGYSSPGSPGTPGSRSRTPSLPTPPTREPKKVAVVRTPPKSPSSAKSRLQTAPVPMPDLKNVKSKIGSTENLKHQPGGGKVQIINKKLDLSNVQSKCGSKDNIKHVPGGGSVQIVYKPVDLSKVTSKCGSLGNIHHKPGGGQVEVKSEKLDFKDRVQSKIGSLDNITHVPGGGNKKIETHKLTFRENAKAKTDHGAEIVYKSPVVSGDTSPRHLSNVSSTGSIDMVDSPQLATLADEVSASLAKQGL
T3 sequence (P56817 46-501): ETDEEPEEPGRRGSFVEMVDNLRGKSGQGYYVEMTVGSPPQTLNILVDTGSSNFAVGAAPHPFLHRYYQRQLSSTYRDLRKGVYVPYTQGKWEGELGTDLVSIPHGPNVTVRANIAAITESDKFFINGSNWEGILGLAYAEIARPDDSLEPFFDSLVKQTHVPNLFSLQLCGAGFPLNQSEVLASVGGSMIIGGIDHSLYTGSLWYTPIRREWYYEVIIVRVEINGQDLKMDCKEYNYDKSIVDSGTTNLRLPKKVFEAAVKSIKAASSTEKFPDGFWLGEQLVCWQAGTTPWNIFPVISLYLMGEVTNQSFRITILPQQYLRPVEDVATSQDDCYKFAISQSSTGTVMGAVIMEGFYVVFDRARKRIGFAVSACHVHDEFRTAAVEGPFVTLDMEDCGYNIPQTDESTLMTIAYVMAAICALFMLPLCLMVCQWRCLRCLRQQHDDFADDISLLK

Row | SMILES | In cellulo tau inhibition % (tau) | In cellulo Aβ42 inhibition % (Aβ42) | IC50 (human BACE1) | hBACE1 % inhibition (human BACE1) | IC50 (hAChE) [µM] | IC50 (eqBuChE) [µM] | BACE1 percentage of inhibition (human BACE1)
1 | O=S(=O)(c1ccccc1)n1ccc2c(N3CCN(CCNc4c5c(nc6ccccc46)CCCC5)CC3)cccc21 [Compound 1] | 58.1 ± 4.8% | 40.7 ± 4.3% | 1.58 ± 0.15 µM | – | – | – | –
2 | O=S(=O)(c1ccccc1)n1ccc2c(N3CCN(CCCCCNc4c5c(nc6ccccc46)CCCC5)CC3)cccc21 [Compound 2] | – | – | 8.07 ± 0.15 µM | – | – | – | –
3 | O=S(=O)(c1ccccc1)n1ccc2c(N3CCN(CCCCCCCNc4c5c(nc6ccccc46)CCCC5)CC3)cccc21 [Compound 4] | 46.4 ± 5.9% | 58.8 ± 4.2% | 1.31 ± 0.06 µM | – | – | – | –
4 | O=S(=O)(c1ccccc1)n1ccc2c(N3CCN(CCCCCCCCNc4c5c(nc6ccccc46)CCCC5)CC3)cccc21 [Compound 5] | 52.7 ± 5.7% | 61.8 ± 4.1% | 2.29 ± 0.13 µM | – | – | – | –
5 | O=S(=O)(c1ccccc1)n1ccc2c(N3CCN(CCNCc4ccccc4)CC3)cccc21 [Compound 6] | 54.6 ± 6.2% | 64.8 ± 3.4% | – | 67.4% ± 4.8 | – | – | –
6 | O=S(=O)(c1ccccc1)n1ccc2c(N3CCN(CCCNCc4ccccc4)CC3)cccc21 [Compound 7] | 39.7 ± 3.8% | 48.3 ± 4.2% | 5.82 ± 0.34 µM | – | – | – | –
7 | O=S(=O)(c1ccccc1)n1ccc2c(N3CCN(CCCCNCc4ccccc4)CC3)cccc21 [Compound 8] | 45.1 ± 5.1% | 54.5 ± 3.8% | 19.7 ± 1.54 µM | – | – | – | –
8 | O=S(=O)(c1ccccc1)n1ccc2c(N3CCN(CCCCCNCc4ccccc4)CC3)cccc21 [Compound 9] | 44.8 ± 5.6% | 48.0 ± 4.0% | 23.4 ± 1.6 µM | – | – | – | –
9 | c1ccc(Cn2ccc3c(N4CCN(CCNc5c6c(nc7ccccc57)CCCC6)CC4)cccc32)cc1 [Compound 17] | 59% and 58.6 ± 4.5% | 56% and 55.7 ± 2.8% | 4 µM and 4.09 µM | – | 0.026 | 0.005 | –
10 | c1ccc(Cn2ccc3c(N4CCN(CCCNc5c6c(nc7ccccc57)CCCC6)CC4)cccc32)cc1 [Compound 18] | – | – | 4.58 ± 0.21 µM | – | – | – | –
11 | c1ccc(Cn2ccc3c(N4CCN(CCCCCNc5c6c(nc7ccccc57)CCCC6)CC4)cccc32)cc1 [Compound 19] | – | – | 7.23 ± 0.38 µM | – | – | – | –
12 | c1ccc(Cn2ccc3c(N4CCN(CCCCCCNc5c6c(nc7ccccc57)CCCC6)CC4)cccc32)cc1 [Compound 20] | 64.0 ± 5.1% | 66.9 ± 3.9% | – | 62.1% ± 5.8 | – | – | 62%
13 | c1ccc(CNCCCCN2CCN(c3cccc4c3ccn4Cc3ccccc3)CC2)cc1 [Compound 21] | 41.3 ± 6.3% | 12.2 ± 4.1% | 21.9 ± 1.16 µM | – | – | – | –
14 | c1ccc(CNCCCCCN2CCN(c3cccc4c3ccn4Cc3ccccc3)CC2)cc1 [Compound 22] | 44.3 ± 6.5% | 25.2 ± 3.4% | – | 63.9% ± 7.7 | – | – | –
15 | c1ccc(CNCCCCCCN2CCN(c3cccc4c3ccn4Cc3ccccc3)CC2)cc1 [Compound 23] | 28.4 ± 3.8% | 16.4 ± 2.8% | 30.9 ± 1.58 µM | – | – | – | –
16 | c1ccc(CNCCCCCCCN2CCN(c3cccc4c3ccn4Cc3ccccc3)CC2)cc1 [Compound 24] | 55.6 ± 4.2% | 21.4 ± 3.4% | 21.7 ± 1.57 µM | – | – | – | –
17 | Cc1c(OCc2ccccc2)cccc1N1CCN(CCCNc2c3c(nc4ccccc24)CCCC3)CC1 [Compound 27] | 64.5 ± 4.1% | 64.9 ± 4.5% | 5.76 ± 0.28 µM | – | – | – | –
18 | Cc1c(OCc2ccccc2)cccc1N1CCN(CCCCCCNc2c3c(nc4ccccc24)CCCC3)CC1 [Compound 28] | 64.8 ± 2.2% | 64.2 ± 3.4% | – | 67.4% ± 11.3 | – | – | 67%
19 | Cc1c(OCc2ccccc2)cccc1N1CCN(CCCCCCCNc2c3c(nc4ccccc24)CCCC3)CC1 [Compound 29] | 70.3 ± 3.9% | 67.4 ± 4.1% | 4.07 ± 0.27 µM | – | – | – | –
20 | Cc1c(OCc2ccccc2)cccc1N1CCN(CCCCCCCCNc2c3c(nc4ccccc24)CCCC3)CC1 [Compound 30] | 60.2 ± 2.6% | 66.7 ± 5.1% | – | 33.6% ± 11.1 | – | – | 34%
21 | Cc1c(OCc2ccccc2)cccc1N1CCN(CCCNCc2ccccc2)CC1 [Compound 31] | 39.5 ± 8.3% | 24.4 ± 3.4% | – | 34.0% ± 11.4 | – | – | –
22 | Cc1c(OCc2ccccc2)cccc1N1CCN(CCCCNCc2ccccc2)CC1 [Compound 32] | 42.5 ± 6.3% | 43.2 ± 5.4% | – | 42.8% ± 12.7 | – | – | 42.8%
23 | Cc1c(OCc2ccccc2)cccc1N1CCN(CCCCCNCc2ccccc2)CC1 [Compound 33] | 55.8 ± 5.3% | 29.0 ± 4.5% | – | 31.5% ± 1.1 | – | – | about 30%
